Experimental data from patent US20240415878A1, “Compositions and Methods for Modulating Mitochondrial Function” (Board of Regents, The University of Texas System, priority 2021, published 2024).

How the values were obtained:
human MRS2 = molecular target: T1, human MRS2 (Homo sapiens, UniProt Q9HD23); test: Dynamic light scattering of purified full-length MRS2 assembly; format: binding; details: 5 mM
T1 construct: 6xHis (N, cleaved yes); made in house; host or cells: BL21 (DE3) codon+ Escherichia coli, pET-28a
T1 sequence (Q9HD23 58-443): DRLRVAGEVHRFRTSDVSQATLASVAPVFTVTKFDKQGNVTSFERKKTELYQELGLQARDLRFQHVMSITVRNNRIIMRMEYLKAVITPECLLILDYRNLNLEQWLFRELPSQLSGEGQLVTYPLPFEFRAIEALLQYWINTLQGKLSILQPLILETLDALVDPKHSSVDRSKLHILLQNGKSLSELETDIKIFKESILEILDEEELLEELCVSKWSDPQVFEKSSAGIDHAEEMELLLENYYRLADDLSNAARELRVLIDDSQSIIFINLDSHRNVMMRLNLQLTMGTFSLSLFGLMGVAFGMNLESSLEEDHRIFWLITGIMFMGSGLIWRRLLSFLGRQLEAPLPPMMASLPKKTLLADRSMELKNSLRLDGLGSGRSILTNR
Protocol: Next, CPACC was assessed to determine if it directly affects the assembly of purified human MRS2 using dynamic light scattering (DLS). DLS has been used to determine whether the complex stability of proteins/channels is altered by molecular chaperones or drugs (Kitamura et al., 2006). Because of the high sensitivity of DLS to changes in complex sizes, full-length Mrs2 assembly was evaluated in the presence Ca^2+ (5 mM), Mg^2+ (5 mM), Co^2+ (5 mM) or the Mrs2 blocker CPACC (0.5 mM) (FIG. 10K, FIG. 10L, FIG. 10M, FIG. 10N, FIG. 10O). […] A concentration-response assessment confirmed robust decreases in hydrodynamic radii at all CPACC concentrations tested and as low as 10 μM (FIG. 10O).
MRS2 cloning, expression, and purification. The full length human MRS2 (NCBI accession NP_065713.1), identified as MRS258-443 (i.e. residues 58-443) and excluding the mitochondrial targeting sequence, was cloned into pET-28a using Ndel and Xhol restriction sites. […]
Dynamic light scattering (DIS). […] The sample was equilibrated for 5 min at 20° C. before 10 autocorrelation function acquisitions of 5 s each were recorded and averaged. […] The dependence of hydrodynamic size on CPACC concentration was determined using ≈0.5 mg/mL protein supplemented with 0.01 mM, 0.05 mM, 0.1 mM, 0.5 mM or 0.75 mM CPACC, using a similar experimental setup as described above and cumulants analysis.

HIF-1α [1] = test: HIF-1α stabilization in COS-7 cells; format: cell-based
Excerpt: HIF-1α is stabilized in Mrs2−/− mice. To examine the intrinsic role of Mrs2, Mrs2^−/− mice were challenged to LPS-induced inflammatory response. It was noticed that there was a barely detectable HIF-1α stabilization in control but a significant HIF-1α protein accumulation following LPS stimulation in Mrs2^−/− hepatocytes (Daw et al., 2020). […] It was envisioned that loss of Mrs2 in hepatocyte mitochondria might control metabolite fluxes that regulates HIF-1α stability under normoxic conditions. HIF-1α is the most commonly studied transcription factor that responds to oxygen tension and its stabilization controls numerous metabolic cascades, including glycolysis and oxidative phosphorylation (Kaelin and Ratcliffe, 2008; Lum et al., 2007; Semenza, 2013). A targeted metabolite screen was conducted to identify whether these metabolites potentially altered in Mrs2^−/− control HIF-1α stabilization. WT hepatocytes were treated with the PHD inhibitor FG-4952 for 6 hours in the presence or absence of metabolites (Buckley et al., 2012). […] Next it was explored whether citric acid mediated HIF-1α destabilization is a hydroxylation dependent mechanism by reconstitution of hydroxylation-dead mutant HIF-1α in COS-7 cells (Yan et al., 2007). […] Next tested the potency of citric acid and sodium citrate was tested. Hepatocytes isolated from WT or Mrs2^−/− mice were treated for 6 hours. […]

HIF-1α [2] = test system: HIF-1α
Excerpt: HIF-1α is stabilized in Mrs2−/− mice. To examine the intrinsic role of Mrs2, Mrs2^−/− mice were challenged to LPS-induced inflammatory response. It was noticed that there was a barely detectable HIF-1α stabilization in control but a significant HIF-1α protein accumulation following LPS stimulation in Mrs2^−/− hepatocytes (Daw et al., 2020). […] It was envisioned that loss of Mrs2 in hepatocyte mitochondria might control metabolite fluxes that regulates HIF-1α stability under normoxic conditions. HIF-1α is the most commonly studied transcription factor that responds to oxygen tension and its stabilization controls numerous metabolic cascades, including glycolysis and oxidative phosphorylation (Kaelin and Ratcliffe, 2008; Lum et al., 2007; Semenza, 2013). A targeted metabolite screen was conducted to identify whether these metabolites potentially altered in Mrs2^−/− control HIF-1α stabilization. WT hepatocytes were treated with the PHD inhibitor FG-4952 for 6 hours in the presence or absence of metabolites (Buckley et al., 2012). […] Next it was explored whether citric acid mediated HIF-1α destabilization is a hydroxylation dependent mechanism by reconstitution of hydroxylation-dead mutant HIF-1α in COS-7 cells (Yan et al., 2007). […] Next tested the potency of citric acid and sodium citrate was tested. Hepatocytes isolated from WT or Mrs2^−/− mice were treated for 6 hours. HIF-1α stabilization was less affected by di- or tri-sodium citrate than by citric acid (FIG. 9G). […] The citric acid-mediated HIF-1α destabilization was intact in multiple chemical modalities (FIG. 9H) and the intracellular chelation of Mg^2+ ions suppressed FG-4952-induced HIF-1α stabilization (FIG. 9I). […] Furthermore, COS-7 cells were more sensitive to the HIF-1α stabilizing effect compared to hepatocytes. […] Next HIF-1α abundance was tested in liver tissues harvested from dietary cohorts. HIF-1α protein expression/stabilization was prominent in both Mrs2^−/− and Mrs2^−/− WD, whereas HIF-1α protein was nearly completely absent in WT WD (FIG. 9M). This supports the elevation of HIF-1α protein level as a key mechanism driving transcription changes in Mrs2^−/− WD livers.
Immunoblotting. Crushed tissues were homogenized in lysis buffer (ThermoFisher) on ice for one minute (20-30 strokes) using an automatic Dounce homogenizer set to 2000 RPM. Whole cell lysate was prepared in lysis buffer (Abcam) using 3 sets of 3-second sonication (power level 3) intervals on ice. Protein concentration was estimated using Pierce BCA assay kit and samples were prepared and heated for 90° C. for 5 minutes. Equal amounts of protein were loaded and separated on 4%-12% Bis-Tris polyacrylamide gel (Thermo Fisher Scientific), transferred to a PVDF membrane, blocked for 1-2 h using 5% fat free skim milk, washed and finally, probed with corresponding antibodies as specified below. Antibodies were from Cell Signaling Technology (HIF-1α and Hydroxy HIF-1α dilution 1:3000, MCU dilution 1.5000, MICU1 dilution 1:3000), Abcam Abcam (CPT-1a, CPT-2, OXPHOS cocktail dilution 1:3000), ZYMED Laboratories (β-actin; dilution 1:1,000), and Amersham (secondary antibodies conjugated with peroxidase). Development was done using X-ray film using a series of timed exposures and Image J was used for densitometric analysis on scanned film images.

HIF-1α [3] = test: HIF-1α stabilization in human kidney cell line (HK-2); format: cell-based; details: HK-2 treated with CoCl2, metabolites 6 hours
Mrs2 [4] = molecular target: T2, Mrs2 (Mus musculus, UniProt Q5NCE8); test: Mrs2-mediated mMg2+ uptake in digitonin permeabilized hepatocytes (Mag-Green, extramitochondrial Mg2+ clearance); format: cell-based, murine; details: permeabilized cell system
T2 construct: endogenous in cells; host or cells: primary murine hepatocytes (C57BL/6J mice)
T2 sequence (Q5NCE8 54-434): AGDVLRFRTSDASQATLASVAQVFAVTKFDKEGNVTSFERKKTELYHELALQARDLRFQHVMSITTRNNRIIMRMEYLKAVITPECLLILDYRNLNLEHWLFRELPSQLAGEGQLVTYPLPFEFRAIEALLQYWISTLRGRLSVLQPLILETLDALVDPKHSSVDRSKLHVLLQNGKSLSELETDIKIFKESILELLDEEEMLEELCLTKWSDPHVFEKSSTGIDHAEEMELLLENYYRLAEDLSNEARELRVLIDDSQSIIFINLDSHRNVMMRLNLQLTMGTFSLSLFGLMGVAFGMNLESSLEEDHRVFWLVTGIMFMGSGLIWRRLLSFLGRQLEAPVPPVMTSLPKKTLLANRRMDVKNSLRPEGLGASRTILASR
Protocol: (§1) Bacterial CorA forms a pentameric complex that selectively drives Mg2+ uptake in an electrogenic manner. […] Mrs2 is the eukaryotic homologue of CorA and contains two transmembrane domains with a well-conserved F/Y-G-M-N motif; therefore, CorA blockers were tested to determine if they alter Mrs2-mediated mMg^2+ uptake (Moomaw and Maguire, 2008). Digitonin permeabilized hepatocytes were utilized to measure the inhibitory effect and determine its IC50. Permeabilized cells were treated with CPACC followed by a 1 mM bolus of MgCl2 (FIG. 10B). A 1 mM Mg^2+ bolus was added after baseline recording, and the extramitochondrial Mg^2+ clearance was used as a read-out for Mrs2-mediated mMg^2+ uptake using Mag-Green as a Mg^2+ indicator. […] We next investigated Mrs2 inhibition in intact hepatocytes loaded with Mag-Green-AM. […] Next CPACC was examined to determine if it had any effect on MCU-mediated mCa^2+ uptake in permeabilized cells. […] The availability of the compound to intact cells was measured using graphite furnace atomic absorption spectroscopy (GFAAS) and bicinchoninic acid in parallel.
Spectrofluorimetric measurement of mitochondrial Mg^2+ and Ca^2+ dynamics and citrate mediated MagGreen fluorescence quenching. Fluorescence measurements were conducted in a multiwavelength excitation dual wavelength emission spectrofluorometer (Delta RAM, PTI, HORIBA). […]

Mrs2 [5] = molecular target: T2, Mrs2; test: Mrs2 inhibition in intact hepatocytes loaded with Mag-Green-AM, confocal, L-lactate stimulation; format: cell-based, murine
Protocol: as §1, with “parallel. […] Encouraged by the potent inhibitory effect of CPACC and cellular permeability, we next measured the cytotoxicity of CPACC in cells. […]” for “parallel.”
Evaluation of dose dependent Mrs2 inhibition by confocal live cell imaging system. […] Data was quantified using Leica Application Suite X.

[Cl-].[Cl-].[Co+2] [Co^2+, reference compound]
full-length MRS2 complex sizes (DLS) (human MRS2): potently decreased

O=C(O)CC(O)(CC(=O)O)C(=O)O [citric acid]
constitutively stabilized (hydroxylation-dead) HIF-1α mutant (HIF-1α [1]): unaffected | FG-4592 dependent HIF-1α stabilization (HIF-1α [1]; 10 mM): completely blunted | response of hepatocytes from Mrs2^−/− mice to the destabilizing effect (HIF-1α [2]): partially resistant | HIF-1α destabilizing effect in homogenate (HIF-1α [2]; FG-4592 treated WT hepatocyte homogenate): partly maintained | time course of HIF-1α destabilization (HIF-1α [2]; FG-4592 treated hepatocytes): very rapid and robust | effect on HIF-1α stabilized by PHD inhibitor (HIF-1α [2]; WT hepatocytes, FG-4952, 6 hours): destabilized HIF-1α | concentration at which HIF-1α destabilization was observed (HIF-1α [2]; WT hepatocytes, PHD inhibitor, 6 hours): ≥ 6 mM | HIF-1α destabilizing activity (HIF-1α [3]): replicates the observations in hepatocytes

N.N.N.N.N.N.[Cl-].[Cl-].[Cl-].[Co+3] [cobalt(III)hexaammine, Hexaamminecobalt (III) chloride, reference compound]
inhibitory effect on Mrs2 activity (Mrs2 [4]): limited inhibition | effect on Mrs2 in intact hepatocytes (Mrs2 [5]): absent
